Assay results: ChEMBL document CHEMBL1201862, “PubChem BioAssay data set” (2004)
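Compound exposure: 48 hours, 5 concentrations, 96-well plates. GI50 = concentration required for 50% inhibition of growth.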 Calls of active or inactive are those of the source. Cut-off read from the data, not from the text of the source: active = GI50 up to about 1.1 µM and inactive = higher.

Tests used:
Experiment in all cases: NCI anticancer screen, dose series, 48 h
SN12C = tested on: SN12C
HCT-15 = tested on: HCT-15
RXF 393 = tested on: RXF 393
SW-620 = tested on: SW-620
SF-539 = tested on: SF-539
EKVX = tested on: EKVX
NCI-H460 = tested on: NCI-H460
SF-295 = tested on: SF-295
HOP-62 = tested on: HOP-62
TK-10 = tested on: TK-10
Malme-3M = tested on: Malme-3M
NCI-H23 = tested on: NCI-H23
SF-268 = tested on: SF-268
LOX IMVI = tested on: LOX IMVI
HCT-116 = tested on: HCT-116
HT-29 = tested on: HT-29
SNB-75 = tested on: SNB-75
MOLT-4 = tested on: MOLT-4
NCI-H522 = tested on: NCI-H522

Measured: GI50

CC1CCC(C(C)C)C(O[C@@H]2OC(=O)C[C@@H]2Sc2ccccc2)C1 (stereo partly specified)
19.5 µM: HCT-15
inactive: SN12C 16.8 µM | RXF 393 13.4 µM | SW-620 18.2 µM | SF-539 23.5 µM | EKVX 34 µM | NCI-H460 24.5 µM | SF-295 21.1 µM | HOP-62 32.1 µM | TK-10 53.3 µM | Malme-3M 18.5 µM | NCI-H23 26.2 µM | SF-268 24.4 µM | LOX IMVI 13.1 µM | HCT-116 25.9 µM | HT-29 17.5 µM | SNB-75 33.3 µM | MOLT-4 12 µM

Cc1nc2ccc(Cl)cc2c2c1CCN2c1ccc(F)cc1
active: SNB-75 0.0266 µM
36 µM: HCT-15
inactive: SN12C 26.5 µM | RXF 393 17.1 µM | SW-620 27.1 µM | SF-539 22.3 µM | EKVX 45.2 µM | NCI-H460 7.03 µM | SF-295 82.8 µM | HOP-62 18.9 µM | TK-10 18.1 µM | Malme-3M 24.8 µM | NCI-H522 44.2 µM | NCI-H23 20.2 µM | SF-268 58.3 µM | LOX IMVI 8.73 µM | HCT-116 5.75 µM | HT-29 4.94 µM | MOLT-4 4.72 µM

CCOC(=O)CNc1nnnn1C1OC(CO)C(O)C1O (stereo unspecified)
> 100 µM: HCT-15
inactive: SN12C > 100 µM | RXF 393 > 100 µM | SW-620 > 100 µM | SF-539 > 100 µM | EKVX > 100 µM | NCI-H460 > 100 µM | SF-295 > 100 µM | HOP-62 > 100 µM | TK-10 > 100 µM | Malme-3M > 100 µM | NCI-H522 > 100 µM | SF-268 > 100 µM | LOX IMVI > 100 µM | HCT-116 > 100 µM | HT-29 > 100 µM | SNB-75 > 100 µM | MOLT-4 > 100 µM

CC(C)(C)c1ccc(O)c(Br)c1
inactive: SN12C > 100 µM | RXF 393 34.1 µM | SW-620 > 100 µM | SF-539 > 100 µM | EKVX > 100 µM | NCI-H460 > 100 µM | SF-295 > 100 µM | HOP-62 > 100 µM | TK-10 > 100 µM | Malme-3M > 100 µM | NCI-H522 > 100 µM | NCI-H23 > 100 µM | SF-268 > 100 µM | LOX IMVI > 100 µM | HCT-116 > 100 µM | HT-29 > 100 µM | SNB-75 15.1 µM | MOLT-4 > 100 µM
> 100 µM: HCT-15

CC(C)OC(=O)[C@@H](O)[C@H](CO)C1=CC([Si](C)(C)c2ccccc2)=CON1
inactive: RXF 393 > 100 µM | SW-620 > 100 µM | SF-539 > 100 µM | EKVX > 100 µM | NCI-H460 > 100 µM | SF-295 > 100 µM | HOP-62 > 100 µM | TK-10 > 100 µM | NCI-H23 > 100 µM | SF-268 > 100 µM | LOX IMVI > 100 µM | HCT-116 > 100 µM | HT-29 > 100 µM | SNB-75 1.26 µM | MOLT-4 > 100 µM
> 100 µM: HCT-15

c1ccc([P+](c2ccccc2)(c2ccccc2)c2ccc([P+](c3ccccc3)(c3ccccc3)c3ccccc3)cc2)cc1
inactive: SN12C 35.7 µM | RXF 393 34.8 µM | SW-620 > 100 µM | SF-539 24.8 µM | NCI-H460 43.5 µM | SF-295 > 100 µM | HOP-62 > 100 µM | TK-10 60.7 µM | Malme-3M > 100 µM | NCI-H522 37.1 µM | NCI-H23 39.9 µM | SF-268 57.4 µM | LOX IMVI 34.3 µM | HCT-116 32 µM | HT-29 45.8 µM | SNB-75 37.6 µM | MOLT-4 24.7 µM
> 100 µM: HCT-15

CS(=O)(=O)c1ccc2nc(-c3ccc(O)cc3)sc2c1
16.9 µM: HCT-15
inactive: SN12C 17.5 µM | RXF 393 16.9 µM | SW-620 20.7 µM | SF-539 11 µM | EKVX 10.5 µM | NCI-H460 19.4 µM | SF-295 16.7 µM | TK-10 16.3 µM | Malme-3M 16.7 µM | NCI-H522 13.9 µM | NCI-H23 19 µM | SF-268 15.5 µM | LOX IMVI 22.1 µM | HCT-116 16.8 µM | HT-29 13.2 µM | MOLT-4 35.6 µM

OCC1=CC(NC2CC(CO)C(O)C(O)C2O)C(O)C(O)C1O (stereo unspecified)
inactive: SN12C > 100 µM | RXF 393 > 100 µM | SW-620 > 100 µM | SF-539 > 100 µM | EKVX > 100 µM | NCI-H460 > 100 µM | SF-295 > 100 µM | HOP-62 > 100 µM | TK-10 > 100 µM | Malme-3M > 100 µM | NCI-H522 > 100 µM | NCI-H23 > 100 µM | LOX IMVI > 100 µM | HCT-116 > 100 µM | HT-29 > 100 µM | SNB-75 > 100 µM | MOLT-4 > 100 µM
> 100 µM: HCT-15

CCCCC1(O)CC2CC1C(C)C2(C)C (stereo unspecified)
> 100 µM: HCT-15
inactive: SN12C > 100 µM | RXF 393 > 100 µM | SW-620 > 100 µM | SF-539 > 100 µM | EKVX > 100 µM | SF-295 > 100 µM | HOP-62 > 100 µM | TK-10 > 100 µM | Malme-3M > 100 µM | NCI-H23 > 100 µM | SF-268 > 100 µM | LOX IMVI > 100 µM | HCT-116 > 100 µM | HT-29 > 100 µM | SNB-75 > 100 µM | MOLT-4 93.3 µM

C=C(C(=O)O)C1CCC(CC/C=C(\C)CC/C=C(\C)CCC=C(C)C)CO1 (stereo unspecified)
inactive: SN12C 14.2 µM | RXF 393 12.4 µM | SW-620 15.7 µM | SF-539 12.1 µM | EKVX 13.3 µM | SF-295 18.2 µM | HOP-62 23.1 µM | TK-10 23 µM | Malme-3M 21.5 µM | NCI-H522 20.7 µM | NCI-H23 18.5 µM | SF-268 28.2 µM | LOX IMVI 12.2 µM | HCT-116 4.99 µM | HT-29 11.7 µM | SNB-75 > 100 µM
13 µM: HCT-15

CN(C)/N=N/c1ccc2[nH]c(=O)[nH]c2c1
> 100 µM: HCT-15
inactive: SN12C > 100 µM | RXF 393 > 100 µM | SW-620 > 100 µM | SF-539 > 100 µM | EKVX > 100 µM | NCI-H460 > 100 µM | SF-295 > 100 µM | HOP-62 > 100 µM | TK-10 > 100 µM | Malme-3M > 100 µM | NCI-H522 > 100 µM | NCI-H23 > 100 µM | SF-268 > 100 µM | LOX IMVI > 100 µM | HCT-116 > 100 µM | HT-29 > 100 µM | SNB-75 > 100 µM

CNC(=S)/C(C#N)=C(\N)N1CCCC1
> 100 µM: HCT-15
inactive: SN12C > 100 µM | RXF 393 > 100 µM | SW-620 > 100 µM | SF-539 > 100 µM | EKVX > 100 µM | NCI-H460 > 100 µM | HOP-62 > 100 µM | TK-10 > 100 µM | Malme-3M > 100 µM | NCI-H522 > 100 µM | NCI-H23 > 100 µM | SF-268 > 100 µM | HCT-116 > 100 µM | HT-29 > 100 µM | MOLT-4 > 100 µM
